± gives the standard deviation of the averaged measurements.
Assays:
TEMOZOLOMIDE = compound: Cn1nnc2c(C(N)=O)ncn2c1=O [TEMOZOLOMIDE]; test: surviving fraction relative to DMSO-only wells; higher = less growth inhibition; details: exposure time: 5 days
In short: (§1)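 Five days of continuous inhibitor exposure, at 0.5, 1, 5, 10, 50, 100, 500 and 1000 nM, followed a 24-hour period after log-phase tumour cell lines were seeded at 250–500 cells per well in 384-well plates. Surviving fraction was derived from CellTiter-Glo luminescence relative to the median of DMSO-only wells. Plates were read after 10 minutes at room temperature, and lines screened three times were kept only if replicate Pearson r >0.7 and median Z' >0.3.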

XAV-939 = compound: Oc1nc(-c2ccc(C(F)(F)F)cc2)nc2c1CSCC2 [XAV-939]; test: as above; details: exposure time: 5 days
In short: as §1

Test System	surviving fraction (TEMOZOLOMIDE; 0.5 nM)	surviving fraction (TEMOZOLOMIDE; 1 nM)	surviving fraction (TEMOZOLOMIDE; 5 nM)	surviving fraction (TEMOZOLOMIDE; 10 nM)	surviving fraction (TEMOZOLOMIDE; 50 nM)	surviving fraction (TEMOZOLOMIDE; 100 nM)	surviving fraction (TEMOZOLOMIDE; 500 nM)	surviving fraction (TEMOZOLOMIDE; 1000 nM)	surviving fraction (XAV-939; 0.5 nM)	surviving fraction (XAV-939; 1 nM)	surviving fraction (XAV-939; 5 nM)	surviving fraction (XAV-939; 10 nM)	surviving fraction (XAV-939; 50 nM)	surviving fraction (XAV-939; 100 nM)	surviving fraction (XAV-939; 500 nM)	surviving fraction (XAV-939; 1000 nM)
SG27 HEADNECK	1.13 ± 0.058	1.1 ± 0.11	1.02 ± 0.054	1.09 ± 0.019	1.04 ± 0.061	1.16 ± 0.14	1.22 ± 0.048	1.21 ± 0.15	1.1 ± 0.076	0.993 ± 0.089	1 ± 0.058	1.02 ± 0.052	1.08 ± 0.049	0.966 ± 0.081	0.825 ± 0.062	0.802 ± 0.11
SG28 HEADNECK	1.03 ± 0.044	1.18 ± 0.034	1.04 ± 0.013	1.1 ± 0.021	1.1 ± 0.087	1.05 ± 0.013	1.09 ± 0.14	1.09 ± 0.048	1.01 ± 0.11	1.11 ± 0.095	0.981 ± 0.083	0.967 ± 0.11	1.02 ± 0.14	0.958 ± 0.07	0.912 ± 0.075	0.91 ± 0.058
SG31 HEADNECK	0.991 ± 0.11	1.07 ± 0.18	1.01 ± 0.15	1.04 ± 0.013	0.922 ± 0.062	1.17 ± 0.52	1.17 ± 0.24	1.12 ± 0.12	1.02 ± 0.12	1.13 ± 0.1	1.12 ± 0.28	1.02 ± 0.046	0.985 ± 0.021	0.853 ± 0.19	0.745 ± 0.055	0.747 ± 0.037
SG32 HEADNECK	1.14 ± 0.019	1.44 ± 0.39	1.19 ± 0.12	1.37 ± 0.22	1.26 ± 0.071	1.13 ± 0.097	1.2 ± 0.18	1.67 ± 0.62	0.996 ± 0.26	1.02 ± 0.092	1.66 ± 1.1	1.13 ± 0.1	1.02 ± 0.12	1.08 ± 0.13	0.721 ± 0.17	0.603 ± 0.034
SG43 HEADNECK	1.11 ± 0.065	0.96 ± 0.1	0.768 ± 0.047	0.882 ± 0.087	0.742 ± 0.18	0.895 ± 0.24	0.895 ± 0.11	1.14 ± 0.46	1.07 ± 0.11	1.03 ± 0.07	0.909 ± 0.17	0.806 ± 0.26	0.744 ± 0.04	0.878 ± 0.17	0.9 ± 0.068	0.761 ± 0.081
SIHA CERVIX	0.992 ± 0.024	0.996 ± 0.072	0.99 ± 0.06	1.06 ± 0.076	1.02 ± 0.021	1.06 ± 0.039	0.968 ± 0.044	1.02 ± 0.028	1.02 ± 0.045	1.05 ± 0.067	1.05 ± 0.084	1.16 ± 0.13	1.1 ± 0.044	1.19 ± 0.025	1 ± 0.063	0.974 ± 0.046
SJSA1 BONE	0.368 ± 0.017	1.72 ± 0.054	1.64 ± 0.088	1.5 ± 0.13	1.69 ± 0.041	1.64 ± 0.077	1.66 ± 0.084	1.7 ± 0.11	1.1 ± 0.061	1.04 ± 0.053	1.06 ± 0.037	1.12 ± 0.055	1.16 ± 0.06	1.18 ± 0.037	1.07 ± 0.071	1.08 ± 0.014
SKBR3 BREAST	1.1 ± 0.052	1.11 ± 0.058	1.06 ± 0.082	1.06 ± 0.069	0.983 ± 0.061	1.07 ± 0.13	1.13 ± 0.04	1.07 ± 0.055	1.07 ± 0.17	0.943 ± 0.089	1.04 ± 0.16	0.898 ± 0.054	1.11 ± 0.065	1.02 ± 0.1	0.854 ± 0.14	0.772 ± 0.053
SNU475 LIVER	1.004 ± 0.0081	1.01 ± 0.025	1.01 ± 0.051	1.04 ± 0.036	1.01 ± 0.034	1.06 ± 0.047	1.05 ± 0.053	1.03 ± 0.022	0.936 ± 0.035	0.976 ± 0.033	0.891 ± 0.18	1.02 ± 0.018	0.952 ± 0.011	0.965 ± 0.033	0.713 ± 0.068	0.59 ± 0.027
SUM44 BREAST	1.16 ± 0.26	1.19 ± 0.22	1.24 ± 0.23	1.33 ± 0.5	1.19 ± 0.21	1.32 ± 0.33	1.3 ± 0.28	1.3 ± 0.26	1.02 ± 0.059	1.05 ± 0.051	1.05 ± 0.02	1.06 ± 0.044	1.08 ± 0.045	1.1 ± 0.025	1.07 ± 0.023	1.12 ± 0.06
